The values below come from PMC5962403 (SLAS discovery : advancing life sciences R & D, 2018).

For one assay, the target named is T1, CBX7 ChD (Homo sapiens, UniProt O95931).
T1 sequence (O95931 11-69 limits assumed): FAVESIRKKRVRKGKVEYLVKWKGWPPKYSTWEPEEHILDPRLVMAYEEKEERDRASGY
It counts as binding. The note with it: control ligands on 24 DNA constructs each, relative to nonligand.

The test system of another assay is CBX7. The note with it: cited from earlier work.

On to “Ac-F-A-I-Kme3-S-140-mers [medium-affinity ligand]”, for which the “enrichment in model selection against CBX7 (in words)” value on CBX7 ChD was “moderately enriched”.

Regarding “Bz-A-I-Kme3-S-140-mers [low-affinity ligand]”, on CBX7 ChD, the “enrichment in model selection against CBX7 (in words)” value was “poorly enriched”.

In the case of UNC3866, the “selectivity to CBX7 over other CBX proteins and ChDs” value in the assay with CBX7 is recorded as 6- to 18 fold. Further, the Kd at CBX7 (reported Kd for CBX7) is 0.097 µM.

Usually Kd stands for the concentration at which binding is half-saturated.
